Assays:
[1] = target: T1, Tyrosine-protein kinase ITK/TSK (Homo sapiens, UniProt Q08881)
T1 sequence (Q08881 whole entry): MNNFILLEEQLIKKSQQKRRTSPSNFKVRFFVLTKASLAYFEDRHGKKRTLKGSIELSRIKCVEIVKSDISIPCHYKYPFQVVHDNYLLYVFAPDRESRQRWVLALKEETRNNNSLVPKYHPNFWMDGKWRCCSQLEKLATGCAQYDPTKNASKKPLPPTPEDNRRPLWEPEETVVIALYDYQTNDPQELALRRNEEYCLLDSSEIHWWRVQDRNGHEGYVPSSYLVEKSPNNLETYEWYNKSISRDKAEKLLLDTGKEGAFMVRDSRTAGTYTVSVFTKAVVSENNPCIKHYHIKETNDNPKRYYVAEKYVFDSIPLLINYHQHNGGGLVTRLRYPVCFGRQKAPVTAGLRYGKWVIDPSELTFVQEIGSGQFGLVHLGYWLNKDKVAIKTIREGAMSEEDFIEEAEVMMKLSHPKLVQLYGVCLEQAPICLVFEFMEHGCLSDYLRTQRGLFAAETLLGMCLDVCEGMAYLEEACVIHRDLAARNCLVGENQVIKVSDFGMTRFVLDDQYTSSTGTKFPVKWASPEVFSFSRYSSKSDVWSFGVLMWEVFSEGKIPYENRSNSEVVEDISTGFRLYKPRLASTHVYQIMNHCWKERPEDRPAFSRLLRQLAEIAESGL

[2] = target: Tyrosine-protein kinase Lck (Homo sapiens, UniProt P06239)
Tyrosine-protein kinase Lck, sequence (P06239 whole entry): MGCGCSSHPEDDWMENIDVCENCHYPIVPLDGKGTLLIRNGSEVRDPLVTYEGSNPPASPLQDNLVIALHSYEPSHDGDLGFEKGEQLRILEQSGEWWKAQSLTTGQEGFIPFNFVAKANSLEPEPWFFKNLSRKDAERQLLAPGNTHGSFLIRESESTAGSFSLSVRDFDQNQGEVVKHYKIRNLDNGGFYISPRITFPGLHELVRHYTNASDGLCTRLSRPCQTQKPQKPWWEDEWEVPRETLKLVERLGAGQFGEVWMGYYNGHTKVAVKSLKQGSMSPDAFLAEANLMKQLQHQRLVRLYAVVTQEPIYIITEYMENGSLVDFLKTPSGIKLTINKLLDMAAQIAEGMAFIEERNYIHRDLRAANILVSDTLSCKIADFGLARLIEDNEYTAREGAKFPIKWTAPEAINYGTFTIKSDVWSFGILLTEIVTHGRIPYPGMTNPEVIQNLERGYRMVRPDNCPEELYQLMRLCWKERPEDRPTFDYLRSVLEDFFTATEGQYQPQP

Molecule `COc1cc(C)c(Sc2cnc(NC(=O)c3ccc(CNC(C)C(C)(C)C)cc3)s2)cc1C(=O)N1CCN(C(C)=O)CC1` (configuration not stated) has a Ki [1] of 16 nM.

Work on `Cc1cccc(Cl)c1NC(=O)c1ccc2nc(NC(=O)NC(C)(C)C)sc2c1` yielded a Ki [2] of 4 nM.

From ChEMBL document CHEMBL1240298, “Features of selective kinase inhibitors” (Chem Biol, 2005)
